# Read-outs that look alike come from different tables or passages of the source.
# How the values were obtained:
# [1] = test system: Leishmania infantum (MHOM/BR/1974/PP75) in THP-1 macrophages; assay: Anti-Leishmania infantum activity assay (infected THP-1 macrophages, red fluorescence); format: cell-based; conditions: for Status: L. infantum, activity status from IC50 and SI; for IC50: Leishmania infantum, L. infantum in THP-1 macrophages, 72 h
# Description: (§1) Their half-maximum cytotoxic concentrations (CC50) and their selectivity indices (SI), obtained as the ratio of the cytotoxic concentration against the bioactive concentration are shown in Table 2. Theoretically, the higher the SI value, the greater the effectiveness for the target and the lower the toxicity of the compound, characterizing a potentially safe and selective drug.
# Cells derived from the human monocytic strain THP-1 were cultured in complete Rowell Park Memorial Institute (RPMI)-1640 medium (supplemented with 10% fetal bovine serum, 100 U/mL penicillin, and 100 μg/mL streptomycin). Monocytes were differentiated into macrophages by the addition of 20 ng/mL phorbol myristate acetate (PMA). […] The IC50 values were determined by non-linear regression using a variable slope model (log[concentration] vs. growth inhibition) with the GraphPad Prism v8.2.0 (Boston, MA, USA) software. Controls with uninfected cells, untreated infected cells, infected cells treated with amphotericin B at 0.25 μM (positive control) or DMSO 1% were used. Quadruplicates were run in the same plate, and the experiments were repeated at least once.
# [2] = test system: T. cruzi Tulahuen strain in L929 cells; assay: Anti-Trypanosoma cruzi activity assay (infected L929 cells, beta-galactosidase reporter); format: cell-based; conditions: for Status: T. cruzi, activity status from IC50 and SI; for IC50: Trypanosoma cruzi, T. cruzi Tulahuen in L929 cells, 96 h
# Description: as §1
# The in vitro anti-T. cruzi activity was evaluated on L929 cells (mouse fibroblasts) infected with Tulahuen strain of the parasite expressing the Escherichia coli β-galactosidase as reporter gene according to the method described previously. Briefly, four thousand L929 cells were added to each well of a 96-well microtiter plate. After an overnight incubation, a 10 fold excess of trypomastigotes were added to the cells, incubated for 2 h, then replaced with 200 μL of fresh medium and incubated for additional 48 h to establish the infection. For IC50 determination, the cells were exposed to each synthesized compound at serial decreasing dilutions and the plate was incubated for 96 h. Afterwards, 50 μL of 500 μM chlorophenol red beta-D-galactopyranoside (CPRG) in 0.5% Nonidet P40 was added to each well, and the plate incubated for 16 to 20 h, after which the absorbance at 570 nm was measured. Controls with uninfected cells, untreated infected cells, infected cells treated with benznidazole at 3.8 μM (positive control) or 1% DMSO were used. The results were expressed as the percentage of T. cruzi growth inhibition in compound tested cells as compared to the infected cells and untreated cells. The IC50 values were calculated by linear interpolation. Quadruplicates were run in the same plate, and the experiments were repeated at least once.
# (§2) IC50 over T. cruzi and L929 cells were determined by linear interpolation and the selectivity index (SI) was calculated by the ratio of CC50 L929 cells/ IC50 T. cruzi.
# [3] = Cytotoxicity on L929 cells (AlamarBlue); format: cell-based; conditions: mouse, L929 mouse fibroblast cells
# Description: The medium was then replaced, and the cells were exposed to compounds at increasing concentrations starting at IC50 value for T. cruzi. After 96 h of incubation with the compounds, AlamarBlue^TM was added and the absorbance at 570 and 600 nm was measured after 4–6 h. Controls with untreated and DMSO 1%-treated cells were run in parallel. The results were expressed as the percent difference in the reduction between treated and untreated cells. The compound concentration that inhibits 50% of the L929 cell viability (CC50) was determined. Quadruplicates were run in the same plate and the experiments were repeated at least once.
# as §2
# [4] = test system: P. falciparum chloroquine-resistant and mefloquine-sensitive W2 clone; assay: Anti-Plasmodium falciparum activity assay (SYBR, erythrocytic asexual stages); format: cell-based; conditions: for Status: P. falciparum, activity status from IC50 and SI
# Description: In vitro assay with P. falciparum culture were performed as described previously. […] The activity was measured using the SYBR assay with the parasite suspension (0.5% parasitemia and 2% hematocrit) with minor modifications. The test compounds, in serial dilutions, were incubated in “U” bottom 96-wells plates. After 48 h at 37 °C, the culture supernatant was removed and replaced by 100 µL of lysis buffer solution [Tris (20 mM; pH 7.5), EDTA (5 mM), saponin (0.008%; wt/vol), and Triton X 100 (0.08%; vol/vol)] followed by addition of 0.2 µL/mL SYBR Safe (Sigma-Aldrich, Carlsbad, CA, USA). The plate content was transferred to a flat bottom plate and incubated in the dark for 30 min. The plate was read in a fluorometer (Synergy H4 Hibrid Reader, Biotek) with excitation at 485 nm and 535 nm of emission. In all tests, the compound activities were expressed by the 50% inhibitory concentration of the parasite growth (IC50) when compared to the drug-free controls and estimated using the curve-fitting software Origin 8.0 (OriginLab Corporation, Northampton, MA, USA).
# [5] = Cytotoxicity, neutral red uptake assay on BGM cells; format: cell-based; conditions: BGM monkey kidney cells
# Description: The BGM cells were incubated with 20 µL of the drugs at different concentrations (≤1000 µg/mL) for 24 h in a 5% CO2 at 37 °C. The neutral red uptake assay was used to evaluate the lysosomal integrity and distinguishes live cells from dead by its ability to incorporate the dye. Briefly, to each well was added 0.2 mL medium containing 50 µg/mL of neutral red solution. The plate was incubated for another 3 h at 37 °C to allow for the uptake of the vital dye into the lysosomes of viable uninjured cells. After removal of medium, 200 µL of a mixture of 0.5% formaldehyde-1% CaCl2 was added to the cells and incubated by 5 min. The supernatant was removed and 100 µL of a solution of 1% acetic acid-50% ethanol was added to each well to extract the dye. After homogenization, the optical density of each well of the plate was measured using a 540 nm wavelength on a spectrophotometer. This absorbance has shown a linear relationship with the number of surviving cells. The cell viability was expressed as the percentage of control absorbance obtained from the untreated cells after subtracting the appropriate background.
# Plasmodium [6] = test system: Plasmodium; set-up: method as in PMID 33446930, PMID 33307212; conditions: read-out: IC50 plasmodicidal in vitro activity; cited from earlier work
# Plasmodium [7] = test system: Plasmodium; set-up: method as in PMID 33446930, PMID 33307212; conditions: 30mg/(kg × day), 4-day suppressive test; cited from earlier work
# Plasmodium [8] = test system: Plasmodium; set-up: method as in doi:10.1016/j.tetlet.2016.11.071; conditions: read-out: IC50 anti-plasmodial activity; cited from earlier work
# P. falciparum = test system: P. falciparum; set-up: method as in PMID 14513908; conditions: cited from earlier work
# [9] = test system: human and monkey cell lines; set-up: method as in PMID 14513908; conditions: cited from earlier work
# [10] = Cytotoxicity on THP-1 derived macrophages (AlamarBlue); format: cell-based; conditions: human, THP-1 cells differentiated into macrophages, THP-1 macrophages
# Description: For the cytotoxicity assay, human monocytic THP-1 cells were differentiated into macrophages in 96-well microtiter plates for 72 h, as described above. The medium was then replaced, and the cells were exposed to the compounds at increasing concentrations starting at IC50 value for each Leishmania spp. line. After 72 h of incubation with the compounds, AlamarBlue™ was added and the absorbance at 570 and 600 nm was measured after 4 h. Controls with untreated and DMSO 1%-treated cells were run in parallel. The results were expressed as the percentual difference in the reduction between treated and untreated cells. The compound concentration that inhibits 50% of the THP-1 cell viability (CC50) was determined. The CC50 values were determined by non-linear regression using a variable slope model (log(concentration) vs. growth inhibition) with the GraphPad Prism v8.2.0 (CA, USA) software. Triplicates were run in the same plate and the experiments were repeated at least once.
# [11] = P. falciparum W2 clone, 48 h, SYBR
# [12] = Plasmodium falciparum, W2, 48 h, P. falciparum W2 clone, 48 h, SYBR, read-out: IC50
compound,measurement,setting,value
COc1ccc(OC)c(C2C(=O)N(c3ccc(Cl)cc3)CC(=O)N2c2ccccc2)c1 (stereo not shown) [Compound 9],Status,[1],inactive
same,IC50,[1],50.8 ± 1.1 µg/mL
O=C1C(c2c(F)cccc2Cl)N(c2ccccc2)C(=O)CN1c1ccc(Cl)cc1 (stereo not shown) [Compound 22],Status,[2],ACTIVE
same,IC50,[2],7.2 ± 0.9 µg/mL
same,CC50 at 96 h,[3],> 400 µg/mL
CCc1ccc(C2C(=O)N(c3ccc(Cl)cc3)CC(=O)N2c2ccccc2)cc1 (stereo not shown) [Compound 2],Status,[1],inactive
same,IC50,[1],> 100 µg/mL
O=C1C(c2ccccc2F)N(c2ccc(Cl)cc2)C(=O)CN1c1ccc(Cl)cc1 (stereo not shown) [Compound 17],IC50,[4]; [11],9.5 ± 2.1 µg/mL
same,Status,[4],ACTIVE
same,IC50,[4]; [12],< 10 µg/mL
same,CC50 at 24 h,[5],139 ± 18.7 µg/mL
O=C1C(c2ccccc2F)N(c2ccc(Br)cc2)C(=O)CN1c1ccc(Cl)cc1 (stereo not shown) [Compound 19],IC50,[4]; [11],5.4 ± 1.7 µg/mL
same,Status,[4],ACTIVE
same,IC50,[4]; [12],< 10 µg/mL
same,IC50,"[4]; Plasmodium falciparum, W2, P. falciparum, corresponds to 5.4 µg/mL, read-out: IC50 (converted to µM)",12.6 µM
same,CC50 at 24 h,[5],110 ± 11.3 µg/mL
CO[C@]1(CC(C)C)NC(=O)[C@](O)(Cc2ccccc2)NC1=O [Diatretol],IC50,Plasmodium [6],0.6 µM
same,growth inhibition of the parasite in vivo,Plasmodium [7],more than 50%
COc1ccc(C2C(=O)N(c3ccc(Cl)cc3)CC(=O)N2c2ccccc2)cc1Br (stereo not shown) [Compound 8],Status,[2],ACTIVE
same,IC50,[2],7.3 ± 1.5 µg/mL
same,CC50 at 96 h,[3],> 400 µg/mL
Naseseazine C,IC50,Plasmodium [8],3.5 µM
CN1C(=O)C2(CO)NC(=O)C1(Cc1ccccc1)SSSS2 (stereo not shown) [1-demethylhyalodendrin tetrasulfide],IC50,P. falciparum,6.7 µM
same,cytotoxicity,[9],high cytotoxicity
CC(=O)Nc1ccc(C2C(=O)N(c3ccc(Cl)cc3)CC(=O)N2c2ccccc2)cc1 (stereo not shown) [Compound 7],Status,[1],part. ACTIVE (20 > IC50 > 10 µg/mL partially active)
same,IC50,[1],16 ± 1 µg/mL
same,CC50 at 72 h,[10],679 ± 1 µg/mL
CN(C)c1ccc(C2C(=O)N(c3ccc(Cl)cc3)CC(=O)N2c2ccccc2)cc1 (stereo not shown) [Compound 3],Status,[1],inactive
same,IC50,[1],49.1 ± 1.6 µg/mL
COc1ccc(N2CC(=O)N(c3ccc(OC)cc3)C(c3ccccc3)C2=O)cc1 (stereo not shown) [Compound 13],Status,[2],inactive
same,IC50,[2],22.3 ± 1.1 µg/mL

# — article PMC10893061, “Novel 2,5-Diketopiperazines with In Vitro Activities against Protozoan Parasites of Tropical Diseases” (Pharmaceuticals, 2024)
